For 5 molecules, Activity, inhibition and IC50 results are on record in ChEMBL document CHEMBL1159335, “Structures of new cyclic diarylheptanoids and inhibitors of nitric oxide production from Japanese folk medicine Acer nikoense” (J Nat Prod, 2003).

Data set [1] in a line: Cytotoxicity against ddY mouse macrophages after 20 hrs by MTT assay. The data set is classed as cell-based. Particulars: macrophage. Background: Tetrazolium dyes change colour on reduction, which living cells bring about.
The subject of data set [2] is Macrophage. The experiment in a line: Inhibition of LPS-induced NO production in ddY mouse peritoneal macrophages at 100 uM by Griess reagent method. The data set is classed as functional. On the technique in general: Nitrite, measured by Griess reagent, commonly stands in for NO production.
Data set [3] concerns Macrophage. The experiment in a line: Inhibition of LPS-induced NO production in ddY mouse peritoneal macrophages at 1 uM by Griess reagent method. Type of data set: functional.
For data set [4], the system named is Macrophage. Put plainly: Inhibition of LPS-induced NO production in ddY mouse peritoneal macrophages at 3 uM by Griess reagent method. Type of data set: functional.
The test system of data set [5] is Macrophage. Put plainly: Inhibition of LPS-induced NO production in ddY mouse peritoneal macrophages at 10 uM by Griess reagent method. Type of data set: functional.
The subject of data set [6] is Macrophage. Put plainly: Inhibition of LPS-induced NO production in ddY mouse peritoneal macrophages by Griess reagent method. The data set is classed as functional, cell-based.
Data set [7] has as its system Macrophage. The experiment in a line: Inhibition of LPS-induced NO production in ddY mouse peritoneal macrophages at 30 uM by Griess reagent method. Type of data set: functional.

Each structure is given as a SMILES string.

The term inhibition denotes the relative decrease from the control value, in per cent. Broadly, the IC50 is the concentration that gives 50% inhibition. High values mean lower potency, low ones higher potency. Turning to `Oc1ccc(CCCC[C@@H](O)CCc2ccc(O)cc2)cc1`, in data set [1], the Activity result was “Non-toxic”. Further, the inhibition at 100 µM in the data set with Macrophage [2] amounted to 67.2%. Besides, the inhibition at 1 µM with Macrophage [3] was -1.3%. The inhibition at 3 µM with Macrophage [4] was 1.3%. The inhibition at 10 µM in the data set with Macrophage [5] is -1.1%. Besides, in the data set with Macrophage [6], 73 µM corresponded to half-maximal inhibition (IC50). Also, the inhibition at 30 µM in the data set on Macrophage [7] came out at 10.7%.

On to `Oc1ccc2cc1Oc1ccc(cc1)CC[C@H](O)CCCC2` [ACEROGENIN A], for which the Activity result in data set [1] is “Non-toxic”. Further, the inhibition at 100 µM in the data set on Macrophage [2] was determined as 61.4%. Further, the inhibition at 1 µM in the data set on Macrophage [3] stood at 6.7%. Besides, the inhibition at 3 µM with Macrophage [4] is 5.8%. Besides, the inhibition at 10 µM in the data set with Macrophage [5] is 11.6%. Besides, inhibition in the data set on Macrophage [6] was half-maximal at 74 µM (IC50). For the same molecule, the inhibition at 30 µM in the data set with Macrophage [7] is 22.2%.

Take `Oc1ccc2cc1Oc1ccc(cc1)CCCC[C@H](O)CC2` [ACEROGENIN B]: the Activity entry in data set [1] was “Non-toxic”. In addition, the inhibition at 100 µM with Macrophage [2] was found to be 54.1%. For the same molecule, the inhibition at 1 µM in the data set on Macrophage [3] amounted to 1.9%. The inhibition at 3 µM in the data set with Macrophage [4] was -0.5%. The inhibition at 10 µM in the data set on Macrophage [5] was -0.2%. In the data set on Macrophage [6], the concentration for half-maximal inhibition (IC50) was determined as 88 µM. Also, the inhibition at 30 µM with Macrophage [7] worked out at 17.6%.

On to `O=C1CCCCc2ccc(O)c(c2)-c2cc(ccc2O)CC1` [ACEROGENIN E], for which the Activity result in data set [1] is “Non-toxic”. In the data set on Macrophage [2], the inhibition at 100 µM worked out at 81.2%. Moreover, in the data set on Macrophage [3], the inhibition at 1 µM was determined as 0.1%. The inhibition at 3 µM in the data set with Macrophage [4] was 3.3%. Also, the inhibition at 10 µM with Macrophage [5] is 13.6%. The molecule also registered an IC50 in the data set with Macrophage [6] of 24 µM. In the data set on Macrophage [7], the inhibition at 30 µM worked out at 59.4%.

Take `Oc1ccc2cc1-c1cc(ccc1O)CCC(O)CCCC2` (stereo not given) [ACEROGENIN K]: the Activity result in data set [1] is recorded as “Non-toxic”. Also, in the data set with Macrophage [2], the inhibition at 100 µM was 91.3%. In the data set with Macrophage [3], the inhibition at 1 µM stood at 6.6%. Also, the inhibition at 3 µM in the data set with Macrophage [4] was 2.1%. Moreover, in the data set with Macrophage [5], the inhibition at 10 µM was 24.3%. In the data set on Macrophage [6], this molecule had a half-maximal inhibitory concentration (IC50) of 25 µM. For the same molecule, the inhibition at 30 µM with Macrophage [7] came out at 56.6%.
